Paper PMC9869995, “Discovery of benzochromene derivatives first example with dual cytotoxic activity against the resistant cancer cell MCF-7/ADR and inhibitory effect of the P-glycoprotein expression levels” (Journal of Enzyme Inhibition and Medicinal Chemistry, 2023)

What was measured:
MCF-7 = assay: MTT cell viability assay, MCF-7; format: cell-based; conditions: Homo sapiens, MCF7, 24 h incubation, mean ± standard error
Excerpt: (§1) According to previous reports regarding the cytotoxic features of a numerous array of benzochromene scaffolds, compounds 4a − z have been elected to explore their cytotoxic ability against three tumour cell lines, including HCT-116 (colon cancer), MCF-7 (breast cancer), and HepG-2 (hepatocellular cancer), and employing the 3–(4,5-dimethylthiazol-2-yl)-2,5-diphenyl tetrazolium bromide (MTT) colorimetric assay as described in literature. Judges choice of such cell lines has been stimulated by the acknowledged antitumor performance of a substantial number of 1H-benzo[f]chromene and 4H-benzo[h]chromene molecules towards the asserted cell lines. […] Moreover, benzochromene derivatives with highly cytotoxic behaviour, 4a − d, 4g, 4i, 4k, 4n, 4q, 4 u, and 4w, are subjected to further inspection against ADR-resistant human breast cancer cells (MCF-7/ADR) and the two normal cell lines, HFL-1 and human diploid fibroblasts (WI-38). […] Also, the results are illustrated in Table 4.
(§2) The tumour cell lines MCF-7, HepG-2, and […] were obtained from the American Type Culture Collection (ATCC, Rockville, MD). The cells were grown on RPMI-1640 medium supplemented with 10% inactivated foetal calf serum and 50 µg/mL gentamycin. The cells were maintained at 37 °C in a humidified atmosphere with 5% CO2 and were subculture two to three times a week.
(§3) The cytotoxic activity was appraised, using the 3–(4,5-dimethylthiazol-2-yl)-2,5-diphenyl-tetrazolium bromide (MTT) colorimetric assay, as reported previously[57] and ELISA assay for MCF-7/ADR[75].

HCT-116 = assay: MTT cell viability assay, HCT-116; format: cell-based; conditions: Homo sapiens, 24 h incubation, mean ± standard error
Excerpt: as §1, §3

HepG-2 = assay: MTT cell viability assay, HepG-2; format: cell-based; conditions: Homo sapiens, HepG2, 24 h incubation, mean ± standard error
Excerpt: as §1, §2, §3

WI-38 = assay: Cytotoxicity against normal cell line WI-38; format: cell-based; conditions: Homo sapiens, 24 h, mean ± standard error
Excerpt: as §1, §3

MCF-7/ADR = assay: Cytotoxicity against ADR-resistant breast cancer cells; format: cell-based, human; conditions: 24 h exposure, mean ± standard error
Excerpt: as §1, §3

HFL-1 = assay: Cytotoxicity against normal cell line HFL-1; format: cell-based; conditions: Homo sapiens, HFL1, 24 h, mean ± standard error
Excerpt: as §1, §3

[1] = Homo sapiens, NCI/ADR-RES, 24 h

melting point	IC50 (MCF-7)	IC50 (HCT-116)	SMILES	IC50 (HepG-2)	IC50 (WI-38)	IC50 (MCF-7/ADR; [1])	IC50 (HFL-1)	IC50 (MCF-7/ADR)
292 to 294 °C	100 ± 1.3 µM	96.5 ± 2 µM	COc1ccc2ccc3c(c2c1)C(c1c(F)cccc1Cl)C(C#N)=C(N)O3 (centres unmarked) [4t, 3-Amino-1–(2-chloro-6-fulorophenyl)-9-methoxy-1H-benzo[f]chromene-2-carbonitrile]	48.1 ± 1.3 µM				
237 to 239 °C	0.2 µM	14.7 ± 2.3 µM	COc1ccc2ccc3c(c2c1)C(c1ccc(C(F)(F)F)cc1F)C(C#N)=C(N)O3 (centres unmarked) [4u]	10.6 ± 0.9 µM	60.3 ± 0.1 µM	19.7 ± 0.8 µM	55.3 ± 0.1 µM	
268 to 270 °C	13.6 ± 0.2 µM	15 ± 2.6 µM	COc1ccc2ccc3c(c2c1)C(c1cc(Br)cc(Br)c1)C(C#N)=C(N)O3 (centres unmarked) [4s, 3-Amino-1–(3,5-dibromophenyl)-9-methoxy-1H-benzo[f]chromene-2-carbonitrile]	13.4 ± 1.1 µM				
273 to 275 °C	8.3 ± 0.6 µM	5.9 ± 0.4 µM	COc1ccc2ccc3c(c2c1)C(c1ccccc1Br)C(C#N)=C(N)O3 (centres unmarked) [4e, 3-Amino-1–(2-bromophenyl)-9-methoxy-1H-benzo[f]chromene-2-carbonitrile]	4.9 ± 0.2 µM	59.1 ± 1.1 µM		49.5 ± 1.1 µM	
227 to 228 °C	48.4 ± 0.1 µM	27.7 ± 0.3 µM	COc1ccc2ccc3c(c2c1)C(c1ccc(I)cc1)C(C#N)=C(N)O3 (centres unmarked) [4h, 3-Amino-1–(4-iodophenyl)-9-methoxy-1H-benzo[f]chromene-2-carbonitrile]	39.2 ± 0.2 µM				
267 to 268 °C	16.5 ± 0.1 µM	6.4 ± 0.1 µM	COc1ccc2ccc3c(c2c1)C(c1ccc(F)cc1)C(C#N)=C(N)O3 (centres unmarked) [4a, 3-Amino-1–(4-fluorophenyl)-9-methoxy-1H-benzo[f]chromene-2-carbonitrile]	11.3 ± 0.1 µM	56.7 ± 1.1 µM	24.4 ± 1.2 µM	45.1 ± 0.2 µM	
321 to 322 °C	41.5 ± 0.1 µM	18.9 ± 0.2 µM	COc1ccc2ccc3c(c2c1)C(c1c(Cl)cccc1Cl)C(C#N)=C(N)O3 (centres unmarked) [4p, 3-Amino-1–(2,6-dichlorophenyl)-9-methoxy-1H-benzo[f]chromene-2-carbonitrile]	25.9 ± 0.3 µM				
263 to 264 °C	5.8 ± 0.04 µM	6.8 ± 0.1 µM	COc1ccc2ccc3c(c2c1)C(c1cc(Br)cc(Br)c1OC)C(C#N)=C(N)O3 (centres unmarked) [4z, 3-Amino-1–(3,5-dibromo-2-methoxyphenyl)-9-methoxy-1H-benzo[f]chromene-2-carbonitrile]	3.5 ± 0.2 µM	39.6 ± 0.4 µM		33.3 ± 0.1 µM	
252 to 253 °C	5.6 ± 0.1 µM	2.2 ± 0.1 µM	COc1ccc2ccc3c(c2c1)C(c1ccc(Br)cc1)C(C#N)=C(N)O3 (centres unmarked) [4g, 3-Amino-1–(4-bromophenyl)-9-methoxy-1H-benzo[f]chromene-2-carbonitrile]	2 ± 0.1 µM	69 ± 1.1 µM	19.6 ± 1 µM	65.3 ± 0.1 µM	
212 to 214 °C	26.8 ± 1.8 µM	20.2 ± 1.1 µM	COc1ccc2ccc3c(c2c1)C(c1ccc(C(F)(F)F)cc1)C(C#N)=C(N)O3 (centres unmarked) [4j, 3-Amino-1–(4-trifluoromethylphenyl)-9-methoxy-1H-benzo[f]chromene-2-carbonitrile]	5.3 ± 0.1 µM				
260 to 262 °C	4.9 ± 0.5 µM	5.3 ± 0.4 µM	COc1ccc2ccc3c(c2c1)C(c1cc(Br)ccc1Br)C(C#N)=C(N)O3 (centres unmarked) [4r, 3-Amino-1–(2,5-dibromophenyl)-9-methoxy-1H-benzo[f]chromene-2-carbonitrile]	6.8 ± 0.5 µM	33.9 ± 0.4 µM		38.1 ± 0.2 µM	
245 to 246 °C	7 ± 0.1 µM	2.9 ± 0.1 µM	COc1ccc2ccc3c(c2c1)C(c1ccc(C)cc1)C(C#N)=C(N)O3 (centres unmarked) [4i, 3-Amino-1–(4-methylphenyl)-9-methoxy-1H-benzo[f]chromene-2-carbonitrile]	8.8 ± 0.2 µM	61.7 ± 0.1 µM	42.8 ± 2.4 µM	71.6 ± 0.3 µM	
218 to 220 °C	100 ± 0.2 µM	49.9 ± 0.5 µM	COc1ccc(C2C(C#N)=C(N)Oc3ccc4ccc(OC)cc4c32)c(OC)c1 (centres unmarked) [4v, 3-Amino-1–(2,4-dimethoxyphenyl)-9-methoxy-1H-benzo[f]chromene-2-carbonitrile]	93.2 ± 0.2 µM				
260 to 261 °C	26.1 ± 0.1 µM	15.4 ± 0.1 µM	COc1ccc2ccc3c(c2c1)C(c1cc(OC)c(OC)c(OC)c1)C(C#N)=C(N)O3 (centres unmarked) [4y, 3-Amino-1–(3,4,5-trimethoxyphenyl)-9-methoxy-1H-benzo[f]chromene-2-carbonitrile]	8.8 ± 0.2 µM	29.9 ± 0.4 µM		34.1 ± 0.2 µM	
	7.5 ± 0.03 µM	3.2 ± 0.1 µM	CC[C@]1(O)C[C@@H]2CN(CCc3c([nH]c4ccccc34)[C@@](C(=O)OC)(c3cc4c(cc3OC)N(C)[C@H]3[C@@](O)(C(=O)OC)[C@H](OC(C)=O)[C@]5(CC)C=CCN6CC[C@]43[C@@H]65)C2)C1 [Vinblastine, reference compound]	5.7 ± 0.1 µM				
268 to 269 °C	3.8 ± 0.3 µM	8.3 ± 0.2 µM	COc1ccc2ccc3c(c2c1)C(c1cc(Cl)ccc1Cl)C(C#N)=C(N)O3 (centres unmarked) [4o, 3-Amino-1–(2,5-dichlorophenyl)-9-methoxy-1H-benzo[f]chromene-2-carbonitrile]	46.6 ± 0.1 µM				
305 to 306 °C	15.4 ± 0.2 µM	77.7 ± 0.3 µM	COc1ccc2ccc3c(c2c1)C(c1c(F)cccc1F)C(C#N)=C(N)O3 (centres unmarked) [4l, 3-Amino-1–(2,6-difluorophenyl)-9-methoxy-1H-benzo[f]chromene-2-carbonitrile]	28.5 ± 0.4 µM				
263 to 265 °C	69.2 ± 0.3 µM	11.5 ± 1.1 µM	COc1ccc2ccc3c(c2c1)C(c1cccc(Br)c1)C(C#N)=C(N)O3 (centres unmarked) [4f, 3-Amino-1–(3-bromophenyl)-9-methoxy-1H-benzo[f]chromene-2-carbonitrile]	63.6 ± 3.2 µM				
261 to 262 °C	1.8 ± 0.1 µM	1.7 ± 0.2 µM	COc1ccc2ccc3c(c2c1)C(c1ccc(Cl)cc1Cl)C(C#N)=C(N)O3 (centres unmarked) [4n, 3-Amino-1–(2,4-dichlorophenyl)-9-methoxy-1H-benzo[f]chromene-2-carbonitrile]	7.3 ± 0.2 µM	61.9 ± 0.3 µM	10.9 to 15.5 µM	71.7 ± 0.1 µM	15.5 ± 0.2 µM
310 to 311 °C	9.1 ± 0.2 µM	42 ± 0.2 µM	COc1ccc2ccc3c(c2c1)C(c1cccc(Cl)c1Cl)C(C#N)=C(N)O3 (centres unmarked) [4m, 3-Amino-1–(2,3-dichlorophenyl)-9-methoxy-1H-benzo[f]chromene-2-carbonitrile]	11.8 ± 0.2 µM				

SMILES	melting point	IC50 (MCF-7)	IC50 (HCT-116)	IC50 (HepG-2)	IC50 (WI-38)	IC50 (MCF-7/ADR; [1])	IC50 (HFL-1)	IC50 (MCF-7/ADR)
COc1ccc2ccc3c(c2c1)C(c1ccc(OC)c(OC)c1OC)C(C#N)=C(N)O3 (centres unmarked) [4x, 3-Amino-1–(2,3,4-trimethoxyphenyl)-9-methoxy-1H-benzo[f]chromene-2-carbonitrile]	239 to 240 °C	96.1 ± 0.6 µM	36.6 ± 0.1 µM	59.7 ± 0.3 µM				
